Laboratory results published in patent US6576669B2 (Boehringer Ingelheim Pharma KG, priority 2001, dated 2003).

System: muc-5AC RNA
Assay: Biochemical study: Pseudomonas aeruginosa LPS aerosol-induced muc-5AC RNA in rat trachea (TaqMan real time PCR)
Format: in vivo
Settings: 3 mg/kg p.o. 6 hours before LPS aerosol, trachea taken 20 hours after exposure, compared with vehicle pre-treatment
Experimental: Two different rat strains, BDE and F344/NHsd, were tested because previous studies had shown strain-related differences in reactivity to lipopolysaccharides.
Animals Used: Adult male rats, strain BDE/Han, average weight about […] (range 340 g to 450 g), and adult male F344/NHsd rats, average weight about 250 g (range 240 g to 260g).
Animal Maintenance: The rats were housed in air-conditioned rooms, at 21° C.-25° C., relative humidity between 50% and 65%, day-night cycle 12 hours. They were fed before the start of the experiment and received tap water ad lib. 18 hours prior to drug administration, food was withdrawn, but drinking water remained available.
The compound of formula (I), namely carbamic acid, [[4-[[3-[[4-[1-(4-hydroxyphenyl)-1-methylethyl]phenoxy]methyl]phenyl]methoxy]phenyl]iminomethyl]ethyl ester, was synthesized as described in the International Patent Application WO 96/02497 and jet milled. For administration to animals, the compound of formula (I) was first dissolved in LABRASOL® and a 7% emulsion was then prepared of this LABRASOL® solution in distilled water (homogenized). […]
Extraction and Quantitation of RNA: Total RNA was isolated with the RNeasy system (Qiagen, Germany). […] Quantitation of muc-5AC RNA was performed by the TAQMAN® real time PCR system using an ABI Prism 7700 Detector (Perkin Elmer Corporation, California USA). […]

CCOC(=O)/N=C(\N)c1ccc(OCc2cccc(COc3ccc(C(C)(C)c4ccc(O)cc4)cc3)c2)cc1 [compound (I)]
increase in tracheal epithelial expression of the muc-5AC gene (relative to 18S ribosomal RNA) after Pseudomonas aeruginosa aerosol (BDE strain rats, p=0.003): reduced this increase to less than half the value with only vehicle pre-treatment
increase in tracheal epithelial expression of the muc-5AC gene (relative to 18S ribosomal RNA) after Pseudomonas aeruginosa aerosol (F344 strain rats, p=0.010): reduced this increase to less than half the value with only vehicle pre-treatment
